One data set deals with Ref-1 (Homo sapiens, UniProt P27695). The experiment in a line: conventional redox EMSA assay. The format is biochemical. The text has this:
(§1) Biochemistry 50, 82-92 (2011). Nyland et al., Design and Synthesis of Novel Quinone Inhibitors Targeted to the Redox Function of Apurinic/Apyrimidinic Endonuclease 1/Redox Enhancing Factor-1 (Ape1/Ref-1). J Med Chem 53, 1200-1210 (2010). Kelley et al., Cancer Drug Discovery and Development (ed Rebecca G. Bagley) Springer (part of Springer Science+Business Media), 2010. Luo et al., Role of the multifunctional DNA repair and redox signaling protein Ape1/Ref-1 in cancer and endothelial cells: Small molecule inhibition of Ape1's redox function. Antioxid Redox Signal 10, 1853-1867 (2008). Georgiadis et al., Evolution of the redox function in mammalian Apurinic/apyrimidinic Mutation Research 643, 54-63 (2008).
Electrophoretic mobility shift assay (EMSA). EMSAs are performed as previously described (Georgiadis, (2008) #15789) with the some modifications. Briefly, for super-shift assay, 6 μg STAT3 antibody (Santa Cruz Biotechnology, Inc, Santa Cruz, Calif.) is pre-incubated with 15 mg nuclear extract from PaCa-2 cells (treated with 50 ng/mL IL-6 for 2 hrs in 2% serum), followed by 1 μg/mL poly(dI-dC).poly(dI-dC) (Amersham Biosciences, Piscataway, N.J.) and 0.1 pmol 5′HEX-labeled double-stranded oligonucleotide DNA (Midland Certified Reagent Company, Midland, Tex.) containing the STAT3 direct repeat consensus sequence for 15 min (Preston, (2005)). For the experiment of APE1 interacting with STAT3, purified APE1 protein is reduced with 2 mM DTT (dithiothreitol) for 10 min and diluted to a final concentration of 4 mg with 0.4 mM DTT in PBS. Reduced APE1 is added to 15 mg nuclear extract as above. The final concentration of DTT in redox reactions is 0.04 mM.

In the next data set the test system is STAT3. Kind of data set: activation status of signaling pathways in T-ALL. It is filed as cell-based. As for the experimental part: Western blot analysis. For whole cell lysates, cells are harvested, lysed in RIPA buffer (Santa Cruz Biotechnology; Santa Cruz, Calif.), and protein is quantified and electrophoresed. Nuclear and cytoplasmic extracts are isolated using a conventional method (See, Jackson, (2006)). Immunoblotting is performed using the following antibodies: APE1 (Novus Biologicals; Littleton, Colo.), STAT1, STAT3, STAT5, p-STAT1(Y701), p-STAT3(Y705), p-STAT5 (Y694) (Cell Signaling; Danvers, Mass.), and tubulin (Sigma Aldrich) or GAPDH (Santa Cruz).
Biochemistry. […] That result is in contrast to what is observed with other compounds such as PI3K/Akt or mTOR.

Another data set has as its system STAT3, AP-1, and NF-κB. Kind of data set: DNA binding and transcriptional activity of the target TFs of Ref-1. The format is biochemical. To be noted: STAT3, AP-1, NF-κB. As for the experimental part:
Electrophoretic mobility shift assay (EMSA). […] For the experiment of APE1 interacting with STAT3, purified APE1 protein is reduced with 2 mM DTT (dithiothreitol) for 10 min and diluted to a final concentration of 4 mg with 0.4 mM DTT in PBS. Reduced APE1 is added to 15 mg nuclear extract as above. The final concentration of DTT in redox reactions is 0.04 mM.

In the next data set the test system is TAIL7 cells. Kind of data set: standard cell survival assay (ATP assay) of TAIL7 cells. To be noted: Homo sapiens, 96 h. It is filed as cell-based. The text has this: The compounds described herein decrease survival of leukemia cells.
The nature of data set [1]: Maximum tolerated dose (MTD). To be noted: in vivo, po. An excerpt:
Maximum tolerated dose (MTD). […] Animals were monitored for up to 14 days after termination of dosing.

The next data set deals with refractory T-ALL cells. The experiment in a line: xenograft model of leukemia. The following applies: b.i.d., one cycle of 5 days; for circulating blasts (human CD45+ cells in peripheral blood): p<0.05 vs vehicle. It is filed as in vivo, NSG mice. The procedure: Xenograft models of childhood relapse, refractory ALL. The antileukemia efficacy of Ref-1 redox blockade by the compounds described herein is evaluated in xenograft models of human ALL. In a first phase, the xenograft model with TAIL7 cells is used to test the therapeutic efficacy of the test compound as monotherapy, and in dual-agent regimens combining test compound with agents used as frontline chemotherapy for T-ALL (Vincristine; Doxorubicin; Dexamethasone) and for relapse T-ALL (Methotrexate). […] Such models of childhood ALL are used in immunodeficient mice (NOD/SCID: terminal leukemia in 70-120 d; NSG: terminal leukemia in 28-35 days with TAIL7 cells), including specimens from relapsed and infant ALL.
Xenografts of pediatric relapse T-cell leukemia: TAIL7 cells or cells from patients with relapse T-ALL (high cellularity; ≧90% BM involvement) will be used for the xenografts; patient specimens will be provided by Dr. Batra, according with IRB regulations. Leukemia cells (1×10^6 TAIL7 cells; 2-3×10^6 patient cells/mice) will be transplanted IV into NSG mice (7-9 wk old). 19, 24 Mice will be monitored weekly for presence of human blasts in the PB, by flow cytometry.
NSG mice (n=5/group) transplanted with refractory T-ALL cells. […] At the end of treatment, frequency of human CD45+ cells was performed in the peripheral blood (PB) and in the bone marrow (BM). Animals are sacrificed for analysis.

Data set [2] deals with T-ALL cells. Kind of data set: potentiation of conventional drugs, ATP assay. It is filed as cell-based. The following applies: fixed dose 20 μM, compared to vehicle. The text has this:
The compounds described herein potentiate the efficacy of conventional drugs for treating leukemia, such as doxorubicin and STATTIC. […]

Data set [3] has as its system Jurkat, SupT1, MOLT4, and HPB-ALL cell lines. The experiment in a line: viability of relapse T-ALL cell lines. The format is cell-based. The following applies: Homo sapiens; immortalized lines derived from relapse T-ALL patients. The text has this: (§2) The compounds described herein are effective against leukemia cells harvested from the bone marrow (BM), thymus (T) or spleen (S). Cells are harvested from the bone marrow (BM), thymus (T) or spleen (S) of mice with terminal Notch (ICN)-induced T-ALL, as determined in a conventional ATP assay (viability at 96 hrs) of the leukemia cells cultured with IL-7. […] Similar inhibition is observed in immortalized Jurkat, SupT1, MOLT4, and HPB-ALL cell lines derived from relapse T-ALL patients, with IC50s from 10-30 μM. Relapse T-ALL lines (Jurkat, SupT1, MOLT4, and HPB-ALL) are reportedly resistant to treatment with glucocorticoids. The compounds described herein are also effective against TAIL7-Dexamethasone resistant cells, which show reduced sensitivity to inhibitors of other leukemia-associated signaling pathways (such as PI3K/Akt, mTOR), and to cytotoxic chemotherapy drugs.

The next data set has as its system leukemia cells. Kind of data set: leukemia cell survival. It is filed as cell-based. To be noted: primary cells from ALL patients, relapsed T-ALL, cells from murine Notch-induced leukemia. As for the experimental part: as §1, with “The activity of other selective Ref-1 redox inhibitors are analyzed against leukemia cells according to conventional redox EMSA assays. See, Su, D. et al. Interactions of APE1 with a redox inhibitor: Evidence for an alternate conformation of the enzyme. Biochemistry” for “Biochemistry”

The test system of a further data set is Survivin and Bcl-xL mRNA. Kind of data set: quantitative PCR of survival genes. The format is cell-based. To be noted: after 24 h at doses between 25-40 μM. An excerpt:
The compounds described herein caused a substantial downregulation of survival genes regulated by STAT3 and NF-κB, such as Survivin, Bcl-xL, and miR-21.

Data set [4] deals with T-ALL cells. Kind of data set: Annexin V/PI assay of apoptosis. The format is cell-based. The following applies: E3330 […] μM or 40 μM, d1 to d5. The text has this:
The compounds described herein cause apoptosis of leukemia cells, including leukemia T-ALL cells.

Data set [5] concerns T-ALL lines from a murine model of T-cell leukemia induced by oncogenic Notch. Kind of data set: ATP viability assay of leukemia cells from murine Notch-induced T-ALL. It is filed as cell-based. To be noted: Mus musculus, T-ALL lines from mice with terminal Notch-induced disease.
From the text: as §2

“Also recorded” adds a separate entry of the source.

This is an account of results in US9315481B2, “Compounds and methods for treating leukemia” (INDIANA UNIVERSITY RESEARCH AND TECHNOLOGY CORPORATION, priority 2012, dated 2016).

Sequence of Ref-1 (P27695 whole entry): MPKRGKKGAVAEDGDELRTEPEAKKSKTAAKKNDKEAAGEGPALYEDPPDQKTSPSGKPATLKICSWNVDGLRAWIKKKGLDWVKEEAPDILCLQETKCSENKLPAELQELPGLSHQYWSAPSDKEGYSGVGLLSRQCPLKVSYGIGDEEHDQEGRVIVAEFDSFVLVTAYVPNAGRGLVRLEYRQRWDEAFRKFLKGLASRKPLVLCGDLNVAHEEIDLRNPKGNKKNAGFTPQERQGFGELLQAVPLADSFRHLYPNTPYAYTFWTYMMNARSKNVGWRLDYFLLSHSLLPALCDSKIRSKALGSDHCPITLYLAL

For the compound `COC1=C(C=C(C)C(=O)N(C)C)C(=O)c2ccccc2C1=O` [Example 5a], the half-inhibitory concentration (IC50) was 1 µM on Ref-1 and 5.5 µM with TAIL7 cells. Moreover, the “activation status of other signaling pathways involved in T-ALL” value (“activation status” below) in the data set on STAT3 is reported as “do not affect”. For the same compound, the “phosphorylation state and nuclear translocation of STAT3” value in the data set with STAT3 is given as “do not affect”. Besides, in the data set with STAT3, AP-1, and NF-κB, the “DNA binding and transcriptional activity of the target TFs of Ref-1” value (from here on “DNA binding and transcriptional activity”) was “disrupt”. In [1], this compound came in with an MTD of over 250 mg/kg.
In turn, `CCCC(=CC1=C(OC)C(=O)c2ccccc2C1=O)C(=O)N(CC)CC` [Example 5c] had an IC50 against Ref-1 of 1 µM. In the data set with STAT3, the “activation status” value was “do not affect”; the “phosphorylation state and nuclear translocation of STAT3” value was “do not affect”. Further, in the data set with STAT3, AP-1, and NF-κB, the “DNA binding and transcriptional activity” value was “disrupt”. In the data set with refractory T-ALL cells (25 mg/kg/d), the “frequency of CD45+ in the BM” value is “marked decrease” and the “circulating blasts (human CD45+ cells in peripheral blood)” value was “significant reduction”. The same compound returned an IC50 in the data set on TAIL7 cells of 4.2 µM. In [1], this compound showed an MTD of over 250 mg/kg.
For the compound `CCCC(=CC1=C(OC)C(=O)c2ccccc2C1=O)C(=O)N(C)C` [Example 5e], half-maximal inhibition at Ref-1 (IC50) was put at 2 µM. Besides, in the data set with STAT3, the “activation status” value was “do not affect”; the “phosphorylation state and nuclear translocation of STAT3” value is “do not affect”. Besides, the “DNA binding and transcriptional activity” value in the data set with STAT3, AP-1, and NF-κB is “disrupt”. Further, in the data set with TAIL7 cells, the midpoint of inhibition, the IC50, lay at 5.5 µM. The compound also displayed an MTD in data set [1] of over 250 mg/kg.
For the compound `CCCCCCCCC/C(=C\C1=C(C)C(=O)C(OC)=C(OC)C1=O)C(=O)O` [Example E3330], in the data set on T-ALL cells [2], the “potentiation of the activity of STATTIC” value is recorded as “potentiates” and the “potentiation of the activity of doxorubicin” value is “potentiates”. For the same compound, the IC50 in [3] lay in the range of 10 to 30 µM. In addition, in the data set with STAT3, the “activation status” value is on record as “do not affect”; the “phosphorylation state and nuclear translocation of STAT3” value was “do not affect”. In addition, in the data set with STAT3, AP-1, and NF-κB, the “DNA binding and transcriptional activity” value is “disrupt”. Moreover, in the data set on leukemia cells, the leukemia cell survival entry is “markedly inhibits”. In addition, in the data set on refractory T-ALL cells (50 mg/kg/d), the “frequency of CD45+ in the BM” value is “marked decrease” and the “circulating blasts (human CD45+ cells in peripheral blood)” value is reported as “significant reduction”. In the data set with TAIL7 cells, this compound returned an IC50 of 29.7 µM. Further, the “reduction in Survivin and Bcl-xL mRNA” value in the data set on Survivin and Bcl-xL mRNA is on record as 2-10 fold. In addition, the MTD in data set [1] is over 250 mg/kg. Moreover, the leukemia cell apoptosis result in the data set with T-ALL cells [4] was “significant leukemia cell apoptosis; also recorded: induces leukemia cell apoptosis”. Besides, the IC50 in [5] was in the range of 20 to 30 µM.
